Reference: patent US20250345383A1, “INTRANASAL ADMINISTRATION OF POLYSULFIDE” (The General Hospital Corporation, priority 2022, published 2025)

Key:
mice subjected to SCI = experiment: Mouse model of spinal cord ischemia (SCI): delayed paraplegia, hindlimb motor function by Basso mouse scale (BMS); format: in vivo
Description: Adult C57BL/6J mice (12-18 weeks old) of both sexes were purchased from Jackson Laboratory (Bar Harbor, ME, USA). Both male and female mice were used in experiments to investigate the neuroprotective effect of GSSSG on motor function after SCI. […] All mice were housed in a temperature and humidity-controlled room in the animal center with a 12-hour light/dark cycle, and were provided with food and water ab libitum. To permit access by mice that were recovering from surgery, additional food pellets were inserted into hydrated gel placed on the bedding. A randomized paired design was used to minimize the variability between each treatment group. Mice were paired based on weight, age, delivery dates, and when possible, holding cages. After the pairing, mice were randomly assigned to different treatments.
The surgical procedures to produce delayed paraplegia in mice were performed as previously described^6 (FIG. 2A). Mice were anesthetized with 5% isoflurane in 100% O2 and tracheally intubated with a 20-gauge catheter (Angiocath; Becton Dickinson, Franklin Lakes, NJ, USA). […] The paravertebral muscle temperature was measured using a T-type implantable thermocouple probe (IT-18) and a T-type pod (ADInstruments, Colorado Springs, CO, USA). […] A median sternotomy extended from the apex of the manubrium to the second rib. The aortic arch was gently isolated between the left common carotid artery (LCCA) and the left subclavian artery (LSA), avoiding the vagus nerve and the left recurrent laryngeal nerve. […] After ischemia, the clips were removed in reverse order. Incisions were closed in layers and mechanical ventilation was discontinued. After stable spontaneous respiration was confirmed, mice were extubated.
The previously described surgical procedures^6 were modified as follows. The respiratory rate during the procedure was increased to 230 breaths/minute, because hyperventilation promotes the occurrence of delayed paraplegia caused by spinal cord ischemia^33. A laser Doppler perfusion monitor (moorVMS-LDF1; Moor Instruments, Millwey, UK) was used to monitor the femoral artery blood flow^28,29. […] To improve the accuracy of surgical procedures, a microscope (Leica MZ95; Leica Microsystems, Buffalo Grove, IL, USA) was used to isolate the aortic arch and place the clips.
Study drugs were administered intranasally using a single-channel pipettor. Mice were anesthetized with 3% isoflurane using a non-rebreathing circuit with a mouse nose cone (VetEquip, Inc., Livermore, CA, USA). While the drugs were administered, the nose cone was removed and mice were allowed to breathe air. Approximately 6 μL of each drug was administered into the mouse's nostrils and the mouse inhaled the droplets during inspiration. […]

[1] = system: CCL2, CXCL1, IL-1β, IL-6, TNF-α, Bcl-2, Bcl-XL, SQOR and other sulfide-metabolizing enzymes mRNA; experiment: mRNA levels in lumbar spinal cords 48 hours after surgery (quantitative real-time PCR); format: in vivo, mouse; details: intranasal GSSSG after SCI
Description: Messenger RNA (mRNA) levels were measured as previously described^15 using lumbar spinal cords at 48 hours after surgery. The mRNA levels of C-C motif chemokine 2 (CCL2), C-X-C motif chemokine ligand 1 (CXCL1), interleukin (IL)-1β, IL-6, tumor necrosis factor (TNF)-α, B-cell lymphoma 2 (Bcl-2), B-cell lymphoma-extra large (Bcl-XL), cystathionine beta synthase, cystathionine gamma lyase, 3-mercaptopyruvate sulfurtransferase, sulfide:quinone oxidoreductase (SQOR), ethylmaronic encephalopathy 1, thiosulfate sulfurtransferase, sulfite oxidase, cysteinyl-tRNA synthetase 1, and cysteinyl-tRNA synthetase 2 were standardized to the level of 18S ribosomal RNA using quantitative real-time polymerase chain reaction (7500 Fast Real-Time PCR System, Thermo Fisher Scientific, Waltham, MA, USA).

[2] = system: sulfane sulfur in lumbar spinal cord; experiment: Relative sulfane sulfur levels in lumbar spinal cords after SCI (SSip-1); format: in vivo, mouse; details: 48 hours after SCI; intranasal GSSSG; sham set to 1.00±0.30, vehicle alone 0.56±0.13; mean ± SD
Description: Lumbar spinal cords were harvested 48 hours after surgery and snap-frozen in liquid nitrogen. Spinal cords were subsequently homogenized in Hanks' balanced salt solution (HBSS; Thermo Fisher Scientific, Waltham, MA, USA) containing SSip-1 (5 μM), incubated at room temperature in the dark for 20 minutes, and then subjected to centrifugation. SSip-1 was synthesized and provided by the Hanaoka laboratory^38. The fluorescence intensities of supernatants were measured using a microplate reader (SpectraMax M5; Molecular Devices, San Jose, CA, USA) at the wavelength of λex/λem=491 nm/525 nm. The fluorescence intensities were normalized to the weights of the spinal cord.

primary cortical neurons [3] = experiment: Relative sulfane sulfur levels in primary cortical neurons (SSip-1 DA); format: cell-based, mouse; details: incubation at 10 μM for 20 minutes; relative to untreated neurons
Description: (§1) Primary cortical neurons were isolated from the cerebral cortices of C57BL/6J mice of both sexes at embryonic day 15, as previously described 39. Primary cortical neurons were maintained at 37° C. in a humidified tissue culture chamber with 5% CO2 and cells were used on day 11 after harvest.
Primary cortical neurons or SH-SY5Y cells, a human neuroblastoma cell line (American Type Culture Collection, Manassas, VA, USA), were incubated with SSip-1 DA […] at 37° C. for 20 minutes in the dark. Cells were washed with pre-warmed HBSS containing calcium and magnesium (Thermo Fisher Scientific, Waltham, MA, USA) and then cells were incubated with GSSSG, sodium trisulfide (Na2S3; Dojindo Molecular Technologies, Inc., Rockville, MD, USA), PTN-SSS, or vehicle alone for 20 minutes at 37° C. in the dark. Fluorescence intensities were measured using a microplate reader.

primary cortical neurons [4] = experiment: Cell viability after oxygen and glucose deprivation/reoxygenation (OGD/R), primary cortical neurons; format: cell-based, mouse
Description: as §1, with “harvest. […] After reoxygenation, cell viability and cell injury were assessed using crystal violet and lactate dehydrogenase (LDH) assays, as previously described^39.” for “harvest.”

SH-SY5Y cells = experiment: Cell viability of SH-SY5Y cells incubated with MPP+ (crystal violet assay); format: cell-based, human; details: MPP+ 5 mM, 24 h; 10 μM each
Description: Cell viability assays was performed to examine cell viabilities of SH-SY5Y cells or murine primary cortical neurons 24 h after the addition of MPP^+ (5 mM for SH-SY5Y, 50 μM for primary cortical neurons) with vehicle (PBS), Na2S (Sigma-Aldrich), Na2S3 (Dojindo Molecular Technologies, Inc), GSSSG (Glutathione trisulfide, Kyowa Hakko Bio Co., Ltd., Tokyo, Japan), LA (α-Lipoic acid, Sigma-Aldrich) or LASSS (α-Lipoic acid trisulfide, Kyowa Hakko Bio Co., Ltd., Tokyo, Japan). Cell viability was measured using the crystal violet assay.

N[C@@H](CCC(=O)N[C@@H](CSSSC[C@H](NC(=O)CC[C@H](N)C(=O)O)C(=O)NCC(=O)O)C(=O)NCC(=O)O)C(=O)O [GSSSG, glutathione trisulfide]
male mice rescued from delayed paraplegia (mice subjected to SCI; GSSSG vs GSSG comparison, n=6 per group, intranasal GSSSG 50 mg/kg, GSSG 53 mg/kg): 83% | mice in which development of delayed paraplegia was prevented (mice subjected to SCI; male mice, n=11 per group, intranasal at 0, 8, 23, 32 hours after surgery, GSSSG 50 mg/kg, GSH 45.2 mg/kg): 73% | mRNA encoding SQOR in lumbar spinal cord [1]: decreased the level of mRNA encoding SQOR | mRNA encoding pro-inflammatory cytokines in lumbar spinal cord [1]: attenuated the upregulation | mRNA levels encoding other enzymes that synthesize or metabolize sulfides or persulfides [1]: no effect | mRNA levels of anti-apoptotic genes Bcl-2 and Bcl-XL, vehicle alone vs GSSSG [1]: no significant difference | relative sulfane sulfur levels in lumbar spinal cord [2]: 1.37±0.50 | levels of intracellular sulfane sulfur in primary cortical neurons (primary cortical neurons [3]): increased levels of intracellular sulfane sulfur | cell survival after OGD/R (primary cortical neurons [4]; GSSSG 100 μM): failed to improve cell survival | release of LDH after OGD/R (primary cortical neurons [4]; GSSSG at 30 μM or 60 μM, vs vehicle-only treated cells): decreased release of LDH | cell viability after OGD/R, crystal violet assay (GSSSG, GSH, GSSG comparison) (primary cortical neurons [4]; GSSSG at 30 μM, GSH at 60 μM, GSSG at 30 μM, vs vehicle-only treated cells): improved cell viability | cell viability after OGD/R, crystal violet assay (primary cortical neurons [4]; GSSSG at 30 μM, vs vehicle-only treated cells): increased cell viability | viability of MPP+-treated SH-SY5Y cells (SH-SY5Y cells): increased the viability
